Data taken from patent publication US20220031687A1, “SYNERGIC PHARMACEUTICAL COMBINATION OF A LEUKOTRIENE-RECEPTOR ANTAGONIST AND AN INVERSE AGONIST OF HISTAMINE HI” (priority 2018, published 2022).

Key:
[1] = tested on: rat tracheal rings; experiment: LTD4-induced contraction of isolated rat tracheal rings; assay type: cell-based
From the text: . The thoracic cavity was exposed, the neck was dissected, and the trachea was removed 1 mm above the tracheal bifurcation and 1 mm below the thyroid cartilage. The sample was submerged in cold Krebs-Henseleit solution bubbled with 95% 02 and 5% CO2, and 3 mm-thick rings were cut. Each ring was placed in an isolated organ chamber, with its bottom anchored by means of a stainless-steel hook and another hook connected to a tension transducer. The chamber was then filled with Krebs-Henseleit solution at 36° C. bubbled with 95% 02 and 5% CO2, pH 7.4±0.5. Two washes were performed, and a 1.5 g load was applied to each ring and were left to rest for 60 minutes. […]
(§1) The antagonist's effects to their own agonists were analyzed using dose-response curves of the agonists in tracheal rings incubated with different antagonists' concentrations. […]
(§2) The half maximal effective concentration (EC50) of each dose-response curve of the analyzed agonists was obtained using the sigmoid model, wherein: y=a+(b−a)/(1+10^(logx0-x)*x p)). […]
(§3) Data are presented as mean±standard deviation of 2 rings obtained from each of the tracheas of 5 rats. Data were analyzed with the one-way ANOVA test with a Dunett's post-test. EC50's were determined by means of the sigmoid model and the 40 percent of effects was obtained using a linear regression. The t and T values were determined based on a t-values table.

[2] = cited from earlier work; for bioavailability / time to maximum plasma concentration: oral administration
[3] = cited from earlier work
[4] = tested on: rat tracheal rings; experiment: Histamine-induced contraction of isolated rat tracheal rings; assay type: cell-based
From the text: Male Wistar rats 300-350 g were sacrificed with a phenobarbital sodium overdose given by intraperitoneal route. The thoracic cavity was exposed, the neck was dissected, and the trachea was removed 1 mm above the tracheal bifurcation and 1 mm below the thyroid cartilage. The sample was submerged in cold Krebs-Henseleit solution bubbled with 95% 02 and 5% CO2, and 3 mm-thick rings were cut. Each ring was placed in an isolated organ chamber, with its bottom anchored by means of a stainless-steel hook and another hook connected to a tension transducer. The chamber was then filled with Krebs-Henseleit solution at 36° C. bubbled with 95% 02 and 5% CO2, pH 7.4±0.5. […]
as §1, §2, §3

CC(C)(O)c1ccccc1CC[C@@H](SCC1(CC(=O)O)CC1)c1cccc(/C=C/c2ccc3ccc(Cl)cc3n2)c1 [montelukast, 1-[[[(1R)-1-[3-[(1E)-2-(7-chloro-2-quinolinyl)ethenyl]phenyl]-3-[2-(1-hydroxy-1-methylethyl)phenyl]propyl]thio]methyl] cyclopropaneacetic acid]
blocking of the contraction induced by the highest LTD4 concentration ([1]; 30 μM montelukast): 75%
biological half-life ([2]; in vivo): 2.7-5.5 hours
bioavailability [2]: 64%
time to maximum plasma concentration [2]: 2 to 4 h
plasma protein binding [3]: 99%

NCCc1c[nH]cn1 [histamine, 2-(4-imidazol) ethylamine]
EC50 ([4]; Rattus norvegicus, cumulative administration, normalised to acetylcholine 0.1 mM = 100%, read-out: EC50 of concentration-dependent contraction of rat tracheal rings): 3540 nM

CN1CCC(=C2c3ccccc3CC(=O)c3sccc32)CC1 [ketotifen, 4,9-Dihydro-4-(1-methyl-4-piperidylidene)-10H-benzo(4,5)cyclohepta[1,2-b]thiophen-10-one]
excreted in urine as metabolites ([2]; first 48 hours): 60 to 70%
excreted unaltered in urine ([2]; first 48 hours): Approximately 1%
first pass effect of the liver metabolism ([2]; glucuronidation and demethylation): approximately 50%
long half-life (biphasic elimination) ([2]; in vivo): 21 h
short half-life (biphasic elimination) ([2]; in vivo): 3 to 5 h
therapeutic plasma concentrations ([2]; in vivo): 1 to 4 µg/mL
bioavailability [2]: approximately 50%
time to maximum plasma concentration [2]: 2 to 4 h
fecal excretion ([2]; up to): 30 to 40%
plasma protein binding [3]: 75%
blocking of the contraction induced by the highest histamine concentration ([4]; 100 μM ketotifen): 65%

CCCCC/C=C\C\C=C/C=C/C=C/[C@@H](SC[C@H](N)C(=O)NCC(=O)O)[C@@H](O)CCCC(=O)O [LTD4, leukotriene D4]
EC50 ([1]; cumulative administration, normalised to acetylcholine 0.1 mM = 100%, read-out: EC50 of concentration-dependent contraction of rat tracheal rings): 42.6 nM
